This is an account of results in US20260021186A1, “Fatty Acid-D-Amino Acid Peptides Conjugates as Anaplerotic Compounds for Use in Treating Propionic Acidemia, Methylmalonic Acidurias, and Energy Metabolic Disorders” (University of Pittsburgh - Of the Commonwealth System of …, priority 2022, published 2026).

Common to all, as to assay type: cell-based, human
In assay [1] the test system is Fb859 propionic acidemia patient fibroblasts. Description: Lysine succinylation of cellular proteins by immunofluorescence confocal microscopy. The note with it: media without glucose. How it is done: FIG. 7 are immunocytochemistry photomicrographs showing the effect of incubation of Fb859 propionic acidemia patient fibroblasts on for lysine succinylation with 90 μM of PMA010, 90 μM of PMA011, 90 μM of succinic acid, 90 μM of methylmalonic acid, or 90 μM adipic acid for 72 hours. Immunocytochemistry of the fibroblast cells were stained for anti-succinyllysine antibody, anti-MTCO1 antibody and DAPI for nuclei. Instrument: Zeiss LSM 710 confocal Microscopy. Magnification: 40×. The cells were grown in glass coverslips at a seeding density of 3-5×10^4 cells. The media for untreated and treatment groups had no glucose, glutamine or pyruvate, and lipid stripped FBS was included instead of regular FBS. Scale bar=20 μm.
FIGS. 8A-8F are a comparison of lysine succinylation of cellular proteins visualized by immunofluorescence confocal microscopy in a Propionic Acidemia (Fb859) patient untreated (FIG. 8A) and treated with 30 μM and 90 μM of D-Serine (FIG. 8B), 30 µM and 90 μM of PMA007 (FIG. 8C), or 30 μM and 90 μM of PMA010 (FIG. 8D). Scale bar=20 μm. FIG. 8E is a bar graph showing the quantification of the percent change in lysine succinylation (green) signal, from the immunofluorescence confocal micrographs of FIGS. 8B and 8C, in response to the treatment of D-serine and PMA007. FIG. 8F is a bar graph showing the quantification of the percent change in lysine succinylation (green) signal, from the immunofluorescence confocal micrographs of a D-Serine repeat experiment and FIG. 8D, in response to the treatment of D-serine and PMA010. Asterisks indicate statistical significance calculated at the raw data level (n=3); **P<0.01, ***P<0.001, ****P<0.0001 statistically compared to untreated. Statistical analysis used T-test.
Immunohistochemistry: Patient cells were grown in glass coverslips at a seeding density of 3-5×10^4 cells. The media for untreated and treatment groups had no glucose, glutamine or pyruvate, and lipid stripped FBS was included instead of regular FBS. NIH Image J software was used to quantify the fluorescence intensity from 50-60 cells per group. Immunocytochemistry of propionic acidemia patient (Fb859) fibroblast cells lines stained for anti-succinyllysine (Green), anti-MTCO1 (Red), or anti-TOMM20 antibodies, and DAPI (Blue) for nuclei. Instrument: Zeiss LSM 710 confocal Microscopy. Statistical analysis used Tukey multiple range test. ****P<0.0001, [PMA010] (90 μM) treatment group statistically compared to control cells grown in the presence of regular complete DMEM media, untreated and [PMA010] (30 μM) cells grown in the absence of glucose/pyruvate/L-glutamine.

The subject of assay [2] is HEK293 PCCA−/− cells. Briefly: Propionyl-CoA alternative metabolites excreted in culture media (mass spectrometry). Particulars: 72 hours; relative to untreated cells. How it is done:
FIGS. 14A-14D are graphs showing the quantitation of propionyl-CoA alternative metabolites excreted in the media of FB859 patient and HEK293 PCCA^−/− cultured cells treated with PMA007 or PMA010 for 72 hours: propionylcarnitine (C3-carnitine; FIG. 14A), propionylglycine (C3-glycine; FIG. 14B), hydroxypropionylcarnitine (C3OH-carnitine; FIG. 14C), and hydroxypropionyl glycine (C3OH-glycine, FIG. 14D). Data are presented as percentage to untreated cells. In media of Fb859 cells, the control (Cntl, 0 μM) treatment with glucose and pyruvate, media propionylcarnitine was 0.17 μM, while in the untreated control, which had no glucose or pyruvate, and stripped FBS (no fat) included in the media, propionylcarnitine was 0.433 μM.
Acylcarnitine levels determination: Media from control, Fb826, and treated and untreated patient, Fb859, cells were collected from either the immunohistochemistry cultures or the Seahorse oxygen consumption 96-well plate assays and analyzed for the levels of short chain acylcarnitines plus propionylglycine and hydroxypropionylglycine using a triple quadrupole API4000 mass spectrometer (AB Sciex™, Framingham, MA) equipped with a ExionLC™ 100 HPLC system (Shimadzu Scientific Instruments™, Columbia, MD) as outlined as previously published.

The subject of assay [3] is ETC components (UQCRC2, COXII, NDUFB8) in PA cell line Fb859 and MMA cell line Fb857. Description: Detection of ETC components by western blots. The note with it: FIG. 11; 72 h treatment. As to the method:
FIG. 11 are western blots showing correction in the signals of Complex III subunit Core 2 48-kDa (UQCRC2), Complex IV subunit II 22-kDa (COXII), and Complex I subunit NDUFB8 18-kDa that is most pronounced in the propionic acidemia (PA) cell line Fb859 compared to the methylmalonic aciduria (MMA) cell line Fb857.
Detection of ETC components by western blots: Same as above, media A for control, and media B for untreated and treated cells in T75 flasks. Amounts of compounds were added appropriately directly to cell culture media when the cultures were about 85-90 confluent. The cultures were allowed to grow for 72 h at 37° C./5% CO2, and then harvested. Harvested cell pellets were stored at −80° C. until immune and enzymatic assay and western blot analyses of OXPHOS subunits. One to 1.5 ml media samples were also stored at −80° C. for.
For orientation: In western blotting, separated proteins are transferred to a membrane and probed.

For `C[C@@H](NC(=O)CCCCC(=O)O)C(=O)N[C@H](Cc1c[nH]cn1)C(=O)O` [PMA010, 6-(((R)-1-(((R)-1-carboxy-2-(1H-imidazol-4-yl)ethyl)amino)-1-oxopropan-2-yl)amino)-6-oxohexanoic acid], in assay [1] (FIG. 7, 90 μM, 72 hours, glutamine or pyruvate, lipid stripped FBS), the “lysine succinylation (green staining) compared to untreated cells” value is recorded as “obvious increase in the green staining”. The “lysine succinylation (green) signal” value in assay [1] (FIGS. 8A-8F, 30 μM and 90 μM, pyruvate, glutamine, stripped FBS) is listed as “Restoration of lysine succinylation (green) signal”. In assay [2], the “reduction in hydroxypropionyl glycine in media” value is given as 80%, the “reduction in propionylcarnitine in media” value stood at 59% and the “reduction in propionylglycine in media” value came out at 41%. Besides, the “correction in the signals of UQCRC2, COXII and NDUFB8 (western blot)” value in assay [3] is “better effect compared to PMA007”.
